# Measurements: ChEMBL document CHEMBL1201862, “PubChem BioAssay data set” (2004)
# The source made the active and inactive calls.
# How the values were obtained:
# [1] = T. cruzi growth inhibition in host cells, dose response, cell-based, plate reader, dry powder, set 2 (AID 652275); assay type: functional
# fMet-Leu-Phe receptor = fMet-Leu-Phe receptor (Homo sapiens, UniProt P21462); assay: formyl peptide receptor binders – dose response (AID 519); assay type: functional
# [2] = Late stage assay provider results from the probe development effort to identify selective inhibitors of heat shock protein 90 (HSP90): Absorbance-based cell proliferation assay in MCF7 cells.; assay type: functional
# [3] = Late stage assay provider results from the probe development effort to identify selective inhibitors of heat shock protein 90 (HSP90): Absorbance-based cell proliferation assay in SKBR3 cells.; assay type: functional; conditions: SK-BR-3
# [4] = target: Protein disulfide-isomerase (Homo sapiens, UniProt P07237); assay: inhibition of PDI-mediated insulin reduction – biochemical, turbidity, dry powder samples, set 2, confirmation (AID 652146)
# Caspase-8 = Caspase-8 (Homo sapiens, UniProt Q14790); assay: inhibitors of purified CASP8 protease – biochemical, Z-IETD-R110 fluorescence, cherry-picked samples, selectivity assay for caspase-6 inhibitor project, dose response (AID 743294)
# Protein Tat = Protein Tat (Human immunodeficiency virus type 1 group M subtype B (isolate HXB2)(HIV-1), UniProt P04608); assay type: functional;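 also: tat binding to TAR RNA read out by fluorescence polarization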
# [5] = target: DNA dC->dU-editing enzyme APOBEC-3A (Homo sapiens, UniProt P31941); assay: Dose Response confirmation of small molecule APOBEC3A DNA Deaminase Inhibitors via a fluorescence-based single-stranded DNA deaminase assay. [Related pubchem assays (depositor defined):AID493011, AID493024]; assay type: functional
# [6] = target: DNA dC->dU-editing enzyme APOBEC-3G (Homo sapiens, UniProt Q9HC16); assay type: functional;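 also: Dose-response counterscreen measuring inhibition of APOBEC3G DNA deaminase activity, run while confirming APOBEC3A inhibitors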
# Caspase-6 = target: T1, Caspase-6 (Homo sapiens, UniProt P55212); assay: inhibition of CASP6 peptide cleavage – biochemical, VEID-R110 fluorescence, cherry-pick, dose response (AID 720632)
# T1 sequence (P55212 whole entry): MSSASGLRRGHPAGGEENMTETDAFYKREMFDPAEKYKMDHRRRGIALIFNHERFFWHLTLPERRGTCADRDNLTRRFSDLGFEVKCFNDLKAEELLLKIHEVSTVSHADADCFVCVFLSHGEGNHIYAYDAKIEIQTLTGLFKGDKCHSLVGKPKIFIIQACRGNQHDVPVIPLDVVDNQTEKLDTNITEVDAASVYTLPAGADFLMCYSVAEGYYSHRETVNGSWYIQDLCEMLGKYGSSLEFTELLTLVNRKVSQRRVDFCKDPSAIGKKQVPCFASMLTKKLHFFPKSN
# [7] = viability loss in THP-1 monocytes – THP-1 cells, cytotoxicity control for Vif-APOBEC3G degradation inhibitor project, dose response (AID 1117359); assay type: functional; conditions: THP-1
# cells [8] = conditions: HEK293
# cells [9] = conditions: A549
# HeLa = assay: ATP-based viability loss in HeLa cells – cell-based, CellTiter-Glo luminescence, cherry-pick samples, cytotoxicity control for MITF activator project, dose response (AID 540259); assay type: functional; conditions: Homo sapiens
# [10] = target: Endoplasmic reticulum aminopeptidase 1 (Homo sapiens, UniProt Q9NZ08); assay: inhibition of human ERAP1 enzyme activity – biochemical, cherry-pick, set 2, plate reader, dose response (AID 743314)
# Nonstructural protein 1 = Nonstructural protein 1 (Influenza A virus, UniProt Q194T2); assay type: functional, Influenza A virus (A/California/07/2009(H1N1))
# Albumin = Albumin (Bos taurus, UniProt P02769); assay: Counterscreen for inhibitors of T-cell receptor (TCR)-CD3 interaction: Fluorescence-based biochemical high throughput dose response assay to identify inhibitors of T-cell receptor (TCR)-CD3 interaction using a TAMRA-labeled BSA probe.; assay type: functional
# Sequence of Albumin (P02769 whole entry): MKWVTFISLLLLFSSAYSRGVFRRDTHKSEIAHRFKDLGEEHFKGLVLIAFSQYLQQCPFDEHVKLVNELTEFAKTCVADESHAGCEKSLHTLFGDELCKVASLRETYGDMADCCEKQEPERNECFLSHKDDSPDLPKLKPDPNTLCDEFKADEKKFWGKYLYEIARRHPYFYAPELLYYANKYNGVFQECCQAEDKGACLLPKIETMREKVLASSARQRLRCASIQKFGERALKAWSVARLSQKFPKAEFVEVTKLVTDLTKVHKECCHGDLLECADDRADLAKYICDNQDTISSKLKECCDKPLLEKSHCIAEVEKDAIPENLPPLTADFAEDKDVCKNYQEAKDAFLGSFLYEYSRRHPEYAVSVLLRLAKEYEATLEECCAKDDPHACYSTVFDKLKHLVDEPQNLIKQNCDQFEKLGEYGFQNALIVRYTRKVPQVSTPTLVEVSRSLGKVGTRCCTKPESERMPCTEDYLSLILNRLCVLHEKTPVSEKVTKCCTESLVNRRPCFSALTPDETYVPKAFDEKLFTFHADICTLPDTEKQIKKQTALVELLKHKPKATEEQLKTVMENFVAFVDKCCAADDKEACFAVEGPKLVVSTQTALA
# Sequence of Protein Tat (P04608 whole entry): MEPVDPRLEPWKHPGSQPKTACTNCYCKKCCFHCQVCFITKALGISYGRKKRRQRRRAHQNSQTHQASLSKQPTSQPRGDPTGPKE
# Sequence of Endoplasmic reticulum aminopeptidase 1 (Q9NZ08 whole entry): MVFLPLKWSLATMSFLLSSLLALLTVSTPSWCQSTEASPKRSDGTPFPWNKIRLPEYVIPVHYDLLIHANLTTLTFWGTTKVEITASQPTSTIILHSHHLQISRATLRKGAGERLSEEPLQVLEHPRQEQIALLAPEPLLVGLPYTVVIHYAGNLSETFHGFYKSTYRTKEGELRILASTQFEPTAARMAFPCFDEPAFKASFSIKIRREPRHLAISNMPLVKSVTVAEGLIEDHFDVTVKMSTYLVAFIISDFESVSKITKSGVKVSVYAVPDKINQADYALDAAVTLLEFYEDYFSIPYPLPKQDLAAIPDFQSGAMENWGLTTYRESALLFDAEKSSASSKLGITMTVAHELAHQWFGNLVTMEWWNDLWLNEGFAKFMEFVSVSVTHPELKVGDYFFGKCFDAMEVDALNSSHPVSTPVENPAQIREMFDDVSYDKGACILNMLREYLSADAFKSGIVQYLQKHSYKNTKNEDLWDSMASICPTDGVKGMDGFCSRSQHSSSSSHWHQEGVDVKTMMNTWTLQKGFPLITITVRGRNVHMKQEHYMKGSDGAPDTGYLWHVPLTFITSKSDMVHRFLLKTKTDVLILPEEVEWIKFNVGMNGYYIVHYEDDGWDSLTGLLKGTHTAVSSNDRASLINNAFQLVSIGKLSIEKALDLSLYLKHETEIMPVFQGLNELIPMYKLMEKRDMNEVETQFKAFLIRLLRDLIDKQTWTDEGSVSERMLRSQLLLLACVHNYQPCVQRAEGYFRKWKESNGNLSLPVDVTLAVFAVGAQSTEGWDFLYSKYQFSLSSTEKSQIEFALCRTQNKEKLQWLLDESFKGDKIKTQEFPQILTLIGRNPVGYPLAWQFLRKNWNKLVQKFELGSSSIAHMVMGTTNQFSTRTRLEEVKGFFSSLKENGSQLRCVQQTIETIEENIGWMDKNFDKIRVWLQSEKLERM
# Sequence of Nonstructural protein 1 (Q194T2 whole entry): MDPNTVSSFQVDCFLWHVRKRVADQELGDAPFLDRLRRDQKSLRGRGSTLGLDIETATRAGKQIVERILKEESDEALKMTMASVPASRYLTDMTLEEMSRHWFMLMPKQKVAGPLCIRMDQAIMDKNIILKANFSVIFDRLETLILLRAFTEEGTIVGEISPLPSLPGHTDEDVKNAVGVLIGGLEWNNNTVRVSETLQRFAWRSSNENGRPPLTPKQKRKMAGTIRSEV
# Sequence of fMet-Leu-Phe receptor (P21462 whole entry): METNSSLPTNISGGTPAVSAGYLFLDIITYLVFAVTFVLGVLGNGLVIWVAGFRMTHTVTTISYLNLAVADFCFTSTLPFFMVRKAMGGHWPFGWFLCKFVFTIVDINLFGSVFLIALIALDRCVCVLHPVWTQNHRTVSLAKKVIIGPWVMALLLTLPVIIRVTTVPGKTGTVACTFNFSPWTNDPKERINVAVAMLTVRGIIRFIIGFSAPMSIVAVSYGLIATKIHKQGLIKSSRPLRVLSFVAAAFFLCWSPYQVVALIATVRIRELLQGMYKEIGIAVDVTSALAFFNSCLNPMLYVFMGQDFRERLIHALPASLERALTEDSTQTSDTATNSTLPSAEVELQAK
# Sequence of DNA dC->dU-editing enzyme APOBEC-3A (P31941 whole entry): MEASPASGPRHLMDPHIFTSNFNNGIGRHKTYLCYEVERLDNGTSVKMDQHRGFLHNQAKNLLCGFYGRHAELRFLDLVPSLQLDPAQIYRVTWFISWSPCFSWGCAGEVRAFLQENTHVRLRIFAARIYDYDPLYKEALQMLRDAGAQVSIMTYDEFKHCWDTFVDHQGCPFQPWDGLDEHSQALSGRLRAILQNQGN
# Sequence of Caspase-8 (Q14790 217-374 limits assumed): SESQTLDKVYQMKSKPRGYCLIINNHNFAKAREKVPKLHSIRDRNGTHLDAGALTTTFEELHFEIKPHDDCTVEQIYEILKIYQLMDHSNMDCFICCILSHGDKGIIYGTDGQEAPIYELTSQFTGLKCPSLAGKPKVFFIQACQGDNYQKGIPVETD
# Sequence of Caspase-8 (Q14790 385-479 limits assumed): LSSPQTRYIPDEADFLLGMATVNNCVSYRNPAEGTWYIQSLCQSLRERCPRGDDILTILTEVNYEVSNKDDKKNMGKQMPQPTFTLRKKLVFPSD
# Sequence of Protein disulfide-isomerase (P07237 whole entry): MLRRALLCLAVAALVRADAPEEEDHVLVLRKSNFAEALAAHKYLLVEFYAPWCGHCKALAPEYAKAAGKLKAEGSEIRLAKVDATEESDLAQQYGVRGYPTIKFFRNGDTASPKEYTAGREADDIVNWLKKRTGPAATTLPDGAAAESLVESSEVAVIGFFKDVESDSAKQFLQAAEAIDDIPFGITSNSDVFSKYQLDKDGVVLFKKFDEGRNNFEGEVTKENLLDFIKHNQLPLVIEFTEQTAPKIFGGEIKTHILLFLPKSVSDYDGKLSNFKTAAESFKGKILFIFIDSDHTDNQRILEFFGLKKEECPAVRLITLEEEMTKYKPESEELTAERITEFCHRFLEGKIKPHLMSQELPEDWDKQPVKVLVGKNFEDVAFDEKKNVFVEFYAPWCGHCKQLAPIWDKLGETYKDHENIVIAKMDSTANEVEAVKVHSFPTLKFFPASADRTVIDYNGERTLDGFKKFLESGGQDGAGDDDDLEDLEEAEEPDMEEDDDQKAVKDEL
# Sequence of DNA dC->dU-editing enzyme APOBEC-3G (Q9HC16 whole entry): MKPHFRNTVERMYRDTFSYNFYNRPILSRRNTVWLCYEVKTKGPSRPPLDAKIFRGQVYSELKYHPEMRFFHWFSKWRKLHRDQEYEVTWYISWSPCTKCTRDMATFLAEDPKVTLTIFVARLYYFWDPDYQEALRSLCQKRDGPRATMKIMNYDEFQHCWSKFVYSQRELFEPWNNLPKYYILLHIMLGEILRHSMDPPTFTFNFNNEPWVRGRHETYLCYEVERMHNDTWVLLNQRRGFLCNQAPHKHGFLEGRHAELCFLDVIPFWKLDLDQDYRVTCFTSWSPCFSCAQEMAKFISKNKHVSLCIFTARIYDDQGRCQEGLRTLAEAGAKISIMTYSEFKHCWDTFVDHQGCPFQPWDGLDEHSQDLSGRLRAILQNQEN
compound,measurement,setting,value
CC(C)N1C[C@@H](CN(C)Cc2ccc(Cl)cc2)Oc2c(NC(=O)c3cn(C)cn3)cccc2C1=O,AC50,[1],0.0198 µM (active)
CCC(SC1=Nc2ccccc2C2=NC(CC(C)C)C(=O)N12)C(=O)Nc1ccc2c(c1)OCO2 (configuration not stated),Ki,fMet-Leu-Phe receptor,37.6 µM (inactive)
CCOc1ccc(NC(=O)c2cc(=O)c(OC)c[nH]2)cc1,IC50,[2],> 100 µM (inactive)
same,IC50,[3],> 100 µM (inactive)
CCOC(=O)C1(CCOc2ccccc2)CCN(Cc2ccc(O)cc2)CC1,AC50,[4],10 µM (active)
CN(CC(=O)Nc1c(Cl)cccc1Cl)C(=O)c1cccc(-n2cccc2)c1,AC50,Caspase-8,> 70 µM (inactive)
same,IC50,Protein Tat,> 100 µM (active)
same,IC50,[5],13.9 µM (active)
same,IC50,[6],34.6 µM (active)
same,AC50,Caspase-6,1.88 µM (active)
same,CC50,[7],> 40 µM (active)
CC(C)(C)c1csc(N/N=C/c2ccc(O)cc2)n1,AC50,cells [8],> 52 µM (inactive)
same,AC50,cells [9],> 52 µM (inactive)
same,AC50,HeLa,69.4 µM (active)
COCCCn1c(C(=O)N2CCOCC2)cc2c(=O)n3ccccc3nc21,AC50,[10],9.81 µM (active)
Nc1nnc(CC(=O)N/N=C\c2cc([N+](=O)[O-])ccc2O)s1,IC50,Nonstructural protein 1,7.93 µM (active)
same,IC50,Albumin,> 94.1 µM (inactive)
